One assay deals with PI3Kalpha (Homo sapiens, UniProt P42336). Briefly: Biochemical PI3Kalpha assay (neomycin SPA, lipid phosphorylation). To be noted: human recombinant GST-PI3K. The method, then: (§1) The efficacy of the compounds according to the invention in the inhibition of PI3K-induced lipid phosphorylation can be investigated in the following binding assay. The assay combines scintillation proximity assay (SPA) technology (Amersham) with the ability of neomycin (a polycationic antibiotic) to bind phospholipids with high affinity and specificity. […] The coating of SPA beads with neomycin allows the detection of phosphorylated lipid substrates after incubation with recombinant PI3K and radioactive ATP in the same well by trapping the radioactive phospholipids by the SPA beads owing to their specific binding to neomycin. […] After incubation at room temperature for 120 minutes with gentle stirring, the reaction was stopped by addition of 200 μl of a solution comprising 250 μg of neomycin-coated PVT-SPA beads, ATP 60 mM and EDTA 6.2 mM in PBS. The assay is incubated at room temperature for a further 60 minutes with gentle stirring in order to enable binding of the phospholipids to the neomycin-SPA beads. After precipitation of the neomycin-coated PVT-SPA beads over 5 minutes at 1500×g, radioactive Ptdlns(3)P is quantified by scintillation counting in a Wallac Micro-Beta™ plate counter.
PI3Kalpha, sequence (P42336 whole entry): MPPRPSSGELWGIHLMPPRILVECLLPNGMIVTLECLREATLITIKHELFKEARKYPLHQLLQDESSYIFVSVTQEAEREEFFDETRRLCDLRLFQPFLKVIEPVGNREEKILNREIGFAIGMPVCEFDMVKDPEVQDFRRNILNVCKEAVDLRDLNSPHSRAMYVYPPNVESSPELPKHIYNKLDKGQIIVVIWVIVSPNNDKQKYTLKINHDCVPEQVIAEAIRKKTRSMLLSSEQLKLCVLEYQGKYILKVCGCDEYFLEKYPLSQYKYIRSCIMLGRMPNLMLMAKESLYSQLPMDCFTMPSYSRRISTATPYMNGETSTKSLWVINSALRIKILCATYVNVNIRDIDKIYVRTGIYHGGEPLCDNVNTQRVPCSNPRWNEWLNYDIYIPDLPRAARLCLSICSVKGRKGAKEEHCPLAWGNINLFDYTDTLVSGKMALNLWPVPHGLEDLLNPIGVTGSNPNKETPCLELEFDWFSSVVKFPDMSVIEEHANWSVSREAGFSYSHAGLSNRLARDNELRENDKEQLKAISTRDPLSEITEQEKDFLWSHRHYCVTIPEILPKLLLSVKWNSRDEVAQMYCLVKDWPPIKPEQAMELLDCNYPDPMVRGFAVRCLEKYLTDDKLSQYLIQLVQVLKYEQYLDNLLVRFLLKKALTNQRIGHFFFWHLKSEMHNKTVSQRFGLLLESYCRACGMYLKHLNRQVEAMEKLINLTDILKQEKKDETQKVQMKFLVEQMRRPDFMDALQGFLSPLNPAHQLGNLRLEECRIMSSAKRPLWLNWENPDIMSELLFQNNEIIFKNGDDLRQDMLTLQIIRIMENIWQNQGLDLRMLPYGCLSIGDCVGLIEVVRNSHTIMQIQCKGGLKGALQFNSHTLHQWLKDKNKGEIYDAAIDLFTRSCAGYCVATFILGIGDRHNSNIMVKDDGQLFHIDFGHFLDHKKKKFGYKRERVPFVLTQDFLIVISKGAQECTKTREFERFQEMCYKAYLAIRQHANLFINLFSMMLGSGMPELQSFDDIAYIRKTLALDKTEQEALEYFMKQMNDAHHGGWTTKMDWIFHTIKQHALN
PI3Kalpha, sequence (P27986 whole entry partner): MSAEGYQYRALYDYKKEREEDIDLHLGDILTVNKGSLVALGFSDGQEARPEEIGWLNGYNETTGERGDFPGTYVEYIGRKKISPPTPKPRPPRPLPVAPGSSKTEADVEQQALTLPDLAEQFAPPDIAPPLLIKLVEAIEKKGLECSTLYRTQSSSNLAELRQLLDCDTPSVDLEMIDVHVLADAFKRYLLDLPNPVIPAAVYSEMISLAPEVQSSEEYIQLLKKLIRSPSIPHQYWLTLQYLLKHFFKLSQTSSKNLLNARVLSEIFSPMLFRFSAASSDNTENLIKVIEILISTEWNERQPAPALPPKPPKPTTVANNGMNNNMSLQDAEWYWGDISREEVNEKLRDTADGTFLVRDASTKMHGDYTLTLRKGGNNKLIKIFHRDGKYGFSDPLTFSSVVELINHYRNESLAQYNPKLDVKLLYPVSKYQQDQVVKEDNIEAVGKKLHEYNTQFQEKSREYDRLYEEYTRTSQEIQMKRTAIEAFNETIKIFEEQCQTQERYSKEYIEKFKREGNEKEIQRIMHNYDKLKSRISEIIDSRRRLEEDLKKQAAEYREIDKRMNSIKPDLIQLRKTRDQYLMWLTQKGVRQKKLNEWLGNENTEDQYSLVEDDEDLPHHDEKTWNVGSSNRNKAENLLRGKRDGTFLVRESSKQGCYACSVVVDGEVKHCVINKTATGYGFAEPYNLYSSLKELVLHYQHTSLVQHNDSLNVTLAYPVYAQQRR

A further assay has as its target PI3Kbeta (Homo sapiens, UniProt P42338). As to the kind of experiment: Biochemical PI3Kbeta assay (neomycin SPA, lipid phosphorylation). To be noted: human recombinant GST-PI3K. The method, then:
as §1

Assay [1] addresses recombinant PI3Kalpha (shortened form of the catalytic subunit) (Homo sapiens, UniProt P42336). Briefly: BIACORE PI3K binding assay (SPR). The conditions noted are these: 25° C. The method, then: SPR measurements of the binding affinities and binding kinetics on PI3Kalpha surfaces with the aid of Biacore systems. The experiments are carried out on a Biacore S51 “Compound Characterization” or a Biacore T100 instrument utilising the default application “Kinetics/Affinity” Experimental conditions: recombinant PI3Kalpha (shortened form of the catalytic subunit, missing N terminal from about 100 to 150 aa, Mw about 110 kDa, prepared by Proteros Biostructures GmbH) is immobilised on Biacore CM5 chips (25° C., flow rate: 10 μl/min, utilising amine coupling at pH 7.40—Biacore Standard protocol). PI3Kalpha is employed in concentrations between 10 and 25 μg/ml. Depending on the duration of the injection time, immobilisation levels from 1700 to 11000 RU are achieved. The substances to be measured are added in the form of a titration series. The substance concentration is doubled for each subsequent injection. 10 different substance concentrations which cover a 500-fold dilution range are usually injected. […] Kinetic titration experiments are carried out at 25° C. with a flow rate of 30 μl/min, the sample contact time is 180 s, and the dissociation time is 240 s in a running buffer (20 mM HEPES pH7.40, 150 mM NaCl, 5 mM MgCl2, 1 mM DTT, 0.1 mM EDTA, 0.05% Tween 20) comprising 2% of DMSO. Buffer injections (as double references) identical to the sample injections are carried out in each case at the beginning of a continuous series. Solvent correction cycles (eight correction points, 1.4%-2.8% DMSO) are carried out at equal intervals. In order to condition the surface, at least five start-up cycles (buffer injections) are carried out. Data points are collected with a sample rate of 10 Hz. Surface regeneration is carried out after each measurement cycle, apart from after the solvent correction runs. For this purpose, two times 100 mM NaHCO3 pH 8.60 are injected for 30 sec. Data sets are processed and analysed using the Biacore S51 Evaluation software, version 1.2.1, or Biacore T100 Evaluation, version 2.0. Solvent-corrected and double-referenced association and dissociation phase data are adapted to a simple 1:1 interaction model with mass transport limitations.

Assay [2] concerns PI3K-dependent phosphorylation of PKB at Serin 473 in PC3 cells. As to the kind of experiment: Cellular PI3K assay (P-S473-PKB Luminex assay in PC3 cells). It is filed as cell-based. To be noted: Homo sapiens, PC-3, 0.5 h; PC3 cells, 30 min, serum-free, P-S473-PKB; read-out: IC50 (cell). The method, then:
The cellular assay for determination of the P-S473-PKB level is carried out as a Luminex assay in 96-well format in PC3 cells.
PC3 cells are sown out with 20,000 cells per well in 100 μl medium (45% […]/45% Ham's F12/10% FCS) and incubated on the following day for 30 min with a serial dilution of the test substance (7 concentrations) under serum-free conditions. The cells are subsequently lysed using 90 μl of lysis buffer (20 mM Tris/HCl pH 8.0, 150 mM NaCl, 1% NP40, 10% glycerol, 1% phosphatase inhibitor I, 1% phosphatase inhibitor II, 0.1% protease inhibitor cocktail III, 0.01% benzonase) per well, and the lysates are separated off from insoluble cell constituents by means of centrifugation through a 96-well filter plate (0.65 μm). The lysates are incubated overnight at 4° C. with shaking with Luminex beads to which an anti-total PKB antibody is coupled. The detection is carried out on the following day by addition of a P-S473-PKB antibody and a species-specific PE-labelled secondary antibody. The detection of P-S473-PKB is carried out by measurement in a Luminex100 instrument by determination of 100 events per cavity in a measurement time of 60 sec.

A further assay addresses DNA-PK protein complex (Homo sapiens, UniProt P78527). As to the kind of experiment: Biochemical DNA-PK assay (FlashPlate). How it is done: The kinase assay is carried out in […] microtitre FlashPlates®, coated with streptavidin. […] The reaction is stopped by addition of 50 μl/well of 200 mM EDTA. After incubation for 30 minutes, the liquids are removed at room temperature. Each well is washed three times with 100 μl of 0.9% NaCl solution. Non-specific reaction (blank) is determined using a proprietary kinase inhibitor (10 μM). The radioactivity is measured by means of a Topcount. […] Todd Eary, J. G. Schiro, H. Huang, L. E. Burgess, E. A. Kesicki, and J. Halbrook.

Where only a bound is given, the exact number is not on record here.

recombinant PI3Kalpha (shortened form of the catalytic subunit), sequence (P42336 151-1068 limits assumed): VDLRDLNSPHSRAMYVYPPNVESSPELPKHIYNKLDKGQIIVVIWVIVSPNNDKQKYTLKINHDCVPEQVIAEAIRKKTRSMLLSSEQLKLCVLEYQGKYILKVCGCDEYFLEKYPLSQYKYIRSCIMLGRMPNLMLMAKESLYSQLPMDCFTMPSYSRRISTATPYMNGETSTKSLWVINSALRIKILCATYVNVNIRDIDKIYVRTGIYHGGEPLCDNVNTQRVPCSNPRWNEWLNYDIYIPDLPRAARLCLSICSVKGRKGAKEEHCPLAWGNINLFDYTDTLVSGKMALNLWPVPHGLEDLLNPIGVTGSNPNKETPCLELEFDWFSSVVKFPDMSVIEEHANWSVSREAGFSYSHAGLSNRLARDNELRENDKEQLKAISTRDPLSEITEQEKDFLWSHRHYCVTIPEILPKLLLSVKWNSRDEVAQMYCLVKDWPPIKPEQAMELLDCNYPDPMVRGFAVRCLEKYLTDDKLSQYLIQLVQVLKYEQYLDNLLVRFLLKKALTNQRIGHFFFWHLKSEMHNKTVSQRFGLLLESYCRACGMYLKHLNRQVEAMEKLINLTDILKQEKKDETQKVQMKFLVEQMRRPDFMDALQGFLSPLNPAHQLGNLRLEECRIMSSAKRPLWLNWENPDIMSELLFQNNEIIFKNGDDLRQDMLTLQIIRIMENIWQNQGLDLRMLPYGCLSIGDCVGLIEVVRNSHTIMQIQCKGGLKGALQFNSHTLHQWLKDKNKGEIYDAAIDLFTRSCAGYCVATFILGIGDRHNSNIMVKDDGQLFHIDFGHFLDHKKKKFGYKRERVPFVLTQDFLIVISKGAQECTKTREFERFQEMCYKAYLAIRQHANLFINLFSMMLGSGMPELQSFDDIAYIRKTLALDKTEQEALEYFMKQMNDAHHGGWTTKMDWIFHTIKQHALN
PI3Kbeta, sequence (P42338 whole entry): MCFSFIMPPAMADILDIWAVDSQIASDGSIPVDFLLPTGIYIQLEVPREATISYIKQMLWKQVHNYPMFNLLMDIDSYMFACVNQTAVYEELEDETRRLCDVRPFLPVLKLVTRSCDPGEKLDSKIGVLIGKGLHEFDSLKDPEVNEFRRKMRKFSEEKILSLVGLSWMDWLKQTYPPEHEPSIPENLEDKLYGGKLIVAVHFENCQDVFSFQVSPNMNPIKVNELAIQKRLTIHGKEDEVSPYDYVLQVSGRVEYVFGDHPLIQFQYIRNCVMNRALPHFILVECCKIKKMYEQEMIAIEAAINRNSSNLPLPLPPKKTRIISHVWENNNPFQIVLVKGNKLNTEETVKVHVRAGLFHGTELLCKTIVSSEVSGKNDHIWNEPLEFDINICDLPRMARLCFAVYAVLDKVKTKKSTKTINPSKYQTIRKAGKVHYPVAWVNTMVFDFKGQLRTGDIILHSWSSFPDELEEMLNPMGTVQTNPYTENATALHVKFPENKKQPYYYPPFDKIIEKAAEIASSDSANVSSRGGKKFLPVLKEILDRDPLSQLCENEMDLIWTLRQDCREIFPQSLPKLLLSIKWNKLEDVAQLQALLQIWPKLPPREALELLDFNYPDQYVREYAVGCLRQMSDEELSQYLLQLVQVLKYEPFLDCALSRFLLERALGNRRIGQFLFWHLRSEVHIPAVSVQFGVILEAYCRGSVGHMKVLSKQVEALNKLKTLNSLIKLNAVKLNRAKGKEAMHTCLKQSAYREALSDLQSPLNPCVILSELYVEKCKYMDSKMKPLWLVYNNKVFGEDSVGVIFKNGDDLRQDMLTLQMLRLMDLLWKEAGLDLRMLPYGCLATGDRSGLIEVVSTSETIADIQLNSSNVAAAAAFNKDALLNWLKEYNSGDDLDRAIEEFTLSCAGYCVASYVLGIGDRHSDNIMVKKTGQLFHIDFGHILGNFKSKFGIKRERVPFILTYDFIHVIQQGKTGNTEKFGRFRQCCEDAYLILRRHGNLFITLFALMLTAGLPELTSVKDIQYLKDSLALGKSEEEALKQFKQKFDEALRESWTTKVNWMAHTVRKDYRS
PI3Kbeta, sequence (P27986 whole entry partner): as the sequence (P27986 whole entry partner) above

As for `COc1ccc(-c2ccnc(-c3c[nH]c(=O)n3-c3ccc(N4CCNCC4)c(C(F)(F)F)c3)c2)cn1` [Example A4, 5-(6-Methoxy-[3,4′]bipyridinyl-2′-yl)-1-(4-piperazin-1-yl-3-trifluoromethylphenyl)-1,3-dihydroimidazol-2-one], the 50% inhibitory concentration (IC50) (on PI3Kalpha; on PI3Kbeta; in assay [2]; at DNA-PK protein complex) was 100 to 10000 nM each time. Further, the Kd in assay [1] was 100 to 10000 nM.

In the case of `Cn1cc(-c2cc(-c3cnc4ccccc4c3)ccn2)n(-c2ccc(N3CCNCC3)c(C(F)(F)F)c2)c1=O` [Example A19, 1-Methyl-3-(4-piperazin-1-yl-3-trifluoromethylphenyl)-4-(4-quinolin-3-ylpyridin-2-yl)-1,3-dihydroimidazol-2-one], the 50% inhibitory concentration (IC50) (at PI3Kalpha; at PI3Kbeta; in assay [2]; on DNA-PK protein complex) was 100 to 10000 nM throughout. The Kd in assay [1] is 100 to 10000 nM.

For the molecule `CC(C)(C#N)c1ccc(-n2c(-c3cc(-c4cnc5[nH]ccc5c4)ccn3)c[nH]c2=O)cc1` [Example A28, 2-Methyl-2-(4-{2-oxo-5-[4-(1H-pyrrolo[2,3-b]pyridin-5-yl)pyridin-2-yl]-2,3-dihydroimidazol-1-yl}phenyl)propionitrile], the half-maximal inhibitory concentration (IC50) was 0.1 to 100 nM at PI3Kalpha, 100 to 10000 nM on PI3Kbeta, 100 to 10000 nM in assay [2] and 0.1 to 100 nM at DNA-PK protein complex. The Kd in assay [1] is 0.1 to 100 nM.

As to `COC(=O)c1c[nH]c2ncc(-c3ccnc(-c4cn(C)c(=O)n4-c4ccc(C(C)(C)C#N)cc4)c3)cc12` [Example A29, Methyl 5-(2-{3-[4-(cyanodimethylmethyl)phenyl]-1-methyl-2-oxo-2,3-dihydro-1H-imidazol-4-yl}pyridin-4-yl)-1H-pyrrolo[2,3-b]pyridine-3-carboxylate], the IC50 at PI3Kalpha was in the range of 0.1 to 100 nM; on PI3Kbeta, 100 to 10000 nM; in assay [2] it was 100 to 10000 nM; against DNA-PK protein complex it was 0.1 to 100 nM. For the same molecule, the Kd in assay [1] fell in the range of 0.1 to 100 nM.

For `Cn1cc(-c2cc(-c3cnc4[nH]ccc4c3)ccn2)n(-c2ccc(C(C)(C)C(=O)O)cc2)c1=O` [Example A33, 2-Methyl-2-(4-{3-methyl-2-oxo-5-[4-(1H-pyrrolo[2,3-b]pyridin-5-yl)pyridin-2-yl]-2,3-dihydroimidazol-1-yl}phenyl)propionic acid], the IC50 at PI3Kalpha is 100 to 10000 nM; at PI3Kbeta, 100 to 10000 nM; in assay [2], over 10000 nM; against DNA-PK protein complex, 0.1 to 100 nM. Further, the Kd in assay [1] was 0.1 to 100 nM.

As to `Cn1cc(-c2cc(-c3cnc(N)c(C#N)c3)ccn2)n(-c2ccc(C(C)(C)C#N)cc2)c1=O` [Example A37, 6-Amino-2′-{3-[4-(cyanodimethylmethyl)phenyl]-1-methyl-2-oxo-2,3-dihydro-1H-imidazol-4-yl}-[3,4′]bipyridinyl-5-carbonitrile], the IC50 at PI3Kalpha is 100 to 10000 nM; at PI3Kbeta it was 100 to 10000 nM; in assay [2] it was 100 to 10000 nM; on DNA-PK protein complex, 0.1 to 100 nM. Further, the Kd in assay [1] lay in the range of 0.1 to 100 nM.

As for `Cn1cc(-c2cc(-c3cnc4[nH]cnc4c3)ccn2)n(-c2ccc(C(C)(C)C#N)cc2)c1=O` [Example A38, 2-(4-{5-[4-(3H-Imidazo[4,5-b]pyridin-6-yl)pyridin-2-yl]-3-methyl-2-oxo-2,3-dihydroimidazol-1-yl}phenyl)-2-methylpropionitrile], the IC50 was in the range of 0.1 to 100 nM on PI3Kalpha, 100 to 10000 nM on PI3Kbeta, 100 to 10000 nM in assay [2] and 100 to 10000 nM at DNA-PK protein complex. The dissociation constant Kd in assay [1] is 0.1 to 100 nM.

Turning to `Cn1cc(-c2cc(-c3cnc4[nH]ccc4c3)ccn2)n(-c2ccc(C#N)cc2)c1=O` [Example A48, 4-{3-Methyl-2-oxo-5-[4-(1H-pyrrolo[2,3-b]pyridin-5-yl)pyridin-2-yl]-2,3-dihydro-imidazol-1-yl}benzonitrile], the half-maximal inhibitory concentration (IC50) on PI3Kalpha was 100 to 10000 nM; at PI3Kbeta, 100 to 10000 nM; in assay [2], 100 to 10000 nM; on DNA-PK protein complex, 0.1 to 100 nM. Besides, in assay [1], the Kd fell in the range of 100 to 10000 nM.

Regarding `Cn1cc(-c2cc(-c3cnc(N)c(C(F)(F)F)c3)ccn2)n(-c2ccc(N3CCNCC3)c(C(F)(F)F)c2)c1=O` [Example A56, 4-(6-Amino-5-trifluoromethyl-[3,4′]bipyridinyl-2′-yl)-1-methyl-3-(4-piperazin-1-yl-3-trifluoromethylphenyl)-1,3-dihydroimidazol-2-one], the IC50 (on PI3Kalpha; on PI3Kbeta; in assay [2]; at DNA-PK protein complex) was 100 to 10000 nM in each case. The Kd in assay [1] lay in the range of 0.1 to 100 nM.

As to `Cn1cc(-c2cc(-c3ccc4[nH]ccc4c3)ccn2)n(-c2ccc(N3CCNCC3)c(C(F)(F)F)c2)c1=O` [Example A57, 4-[4-(1H-Indol-5-yl)pyridin-2-yl]-1-methyl-3-(4-piperazin-1-yl-3-trifluoromethyl-phenyl)-1,3-dihydroimidazol-2-one], the IC50 (at PI3Kalpha; on PI3Kbeta; in assay [2]; against DNA-PK protein complex) was 100 to 10000 nM in each case. Further, the Kd in assay [1] was in the range of 100 to 10000 nM.

For `Cn1cc(-c2cc(-c3ccc(N)nc3)ccn2)n(-c2ccc(N3CCNCC3)c(C(F)(F)F)c2)c1=O` [Example A59, 4-(6-Amino-[3,4′]bipyridinyl-2′-yl)-1-methyl-3-(4-piperazin-1-yl-3-trifluoromethyl-phenyl)-1,3-dihydroimidazol-2-one], the half-maximal inhibitory concentration (IC50) at PI3Kalpha was 100 to 10000 nM; on PI3Kbeta it was 100 to 10000 nM; in assay [2], 100 to 10000 nM; against DNA-PK protein complex it was 0.1 to 100 nM. Also, in assay [1], the Kd is 0.1 to 100 nM.

Turning to `Cn1cc(-c2cc(-c3ccc(NS(C)(=O)=O)cc3)ccn2)n(-c2ccc(N3CCNCC3)c(C(F)(F)F)c2)c1=O` [Example A62, N-(4-{2-[1-Methyl-2-oxo-3-(4-piperazin-1-yl-3-trifluoromethylphenyl)-2,3-dihydro-1H-imidazol-4-yl]pyridin-4-yl}phenyl)methanesulfonamide], the IC50 on PI3Kalpha is over 10000 nM; at PI3Kbeta, over 10000 nM; in assay [2], over 10000 nM; on DNA-PK protein complex, 0.1 to 100 nM. Besides, in assay [1], the Kd is over 10000 nM.

For the origin of these results see patent US8802866B2, “Pyridinylimidazolone derivatives for the inhibition of PI3 kinases” (Merck Patent GmbH, priority 2009, dated 2014).
